# Results as given in patent US9339486B2, “Heterocyclic modulators of cannabinoid receptors” (THE CLEVELAND CLINIC FOUNDATION, priority 2008, dated 2016).
# Read-outs that look alike come from different tables or passages of the source.
# What was measured:
# CB1 = CB1 (Homo sapiens (Human), UniProt P21554); test: Radioligand competition binding, CHO-K1 membranes, [3H]SR141716A
# Procedure: Mukherjee, S., et al., Species Comparison and Pharmacological Characterization of Rat and Human CB2 Cannabinoid Receptors, Eur J Pharmacol, 2004, 505:1-9. The competition binding experiment was performed in 96 well plates (Masterblock®, Catalogue number 786201, Greiner Bio-One) containing binding buffer (50 mM Tris pH 7.4, 2.5 mM EDTA, 0.5% protease free BSA, saponine 10 μg/ml), recombinant membrane extracts (2 μg protein/well) and 1 nM [^3H] SR141716A (GE Healthcare, TRK1028, 42 Ci/mmol, diluted in binding buffer). […] The sample is incubated in a final volume of 0.1 ml for 60 min at 25° C. and then filtered on GF/C Unifilter microplate (Perkin Elmer, Catalogue number 6005177) presoaked in 0.05% Brij for 2 hrs at room temperature. Filters are washed six times with 4 ml of cold binding buffer and bound [^3H] SR141716A is determined by liquid scintillation counting. IC50 were determined by non-linear regression using one site competition equation. The inhibition constants (Ki) were calculated using the Cheng Prusoff equation (Ki=IC50/(1+(L/KD)), where L=concentration of radioligand in the assay, and KD=affinity of the radioligand for the receptor).
# CB2 = CB2 (Homo sapiens (Human), UniProt P34972); test: Radioligand competition binding, CHO-K1 membranes, [3H]CP 55,940; conditions: 1 nM [3H]CP 55,940, read-out: Mean Ki (nM) hCB2
# Procedure: Mukherjee, S., et al., Species Comparison and Pharmacological Characterization of Rat and Human CB2 Cannabinoid Receptors, Eur J Pharmacol, 2004, 505:1-9. […] IC50 were determined by non-linear regression using one site competition equation. The inhibition constants (Ki) were calculated using the Cheng Prusoff equation (Ki=IC50/(1+(L/KD)), where L=concentration of radioligand in the assay, and KD=affinity of the radioligand for the receptor).
# naïve rats = test: Thermal paw withdrawal latency in naïve rats; assay type: in vivo, rat
# Procedure: (§1) To determine sensitivity to noxious heat, rats were placed in plexiglass enclosures on a transparent glass surface maintained at 30° C. and allowed to acclimate for 30 min. A thermal testing apparatus, consisting of a heat-emitting projector lamp and an electronic timer, was used. The device was activated after the lamp is placed directly beneath the planter surface of the hindpaw. The paw withdrawal latency in response to the radiant heat was recorded by a digital timer. A cutoff of 30 s was used to prevent potential tissue damage. After the baseline was measured, three groups of naïve rats (n=10) received 1.0, 3.0, or 10 mg/kg of the compound of Example 3 i.p. Response latencies were determined twice for each rat before drug injection and at 5, 10, 15, 30, 45, 60, 90 and 120 min after IP injection. The percent maximal possible effect (% MPE) was calculated as ([postdrug latency−baseline latency]/[cutoff time (30 s)−baseline latency])×100.
# [1] = tested on: paclitaxel-induced neuropathic pain model; test: animal or person; assay type: in vivo, rat; conditions: for ED50: Rattus norvegicus, ip
# Procedure: Groups of rats received daily i.p. injections of either vehicle or 1.0 mg/kg paclitaxel daily for four consecutive days for a final cumulative dose of 4 mg/kg; using an injection volume of 1 ml/kg. Polomano, R. C., et al., A Painful Peripheral Neuropathy in the Rat Produced by the Chemotherapeutic Drug, Paclitaxel, Pain, 2001, 94:293-304. The vehicle used in our experiments was the same vehicle used clinically for paclitaxel injections and is composed of a mixture of 10% saline and Cremophor EL® and […]. Baseline responses to mechanical stimulation of the hindpaw (see below) were established on day zero and continued daily until the development of neuropathy was confirmed.
# Rats were placed in a compartment with a wire mesh bottom and allowed to acclimate for a minimum of 30 min before testing. Mechanical sensitivity was assessed using a series of Von Frey filaments with logarithmic incremental stiffness (0.41, 0.70, 1.20, 2.00, 3.63, 5.50, 8.50, and 15.1 g) (Stoelting, Wood Dale, Ill.) as previously described, and 50% probability withdrawal thresholds were calculated with the up-down method. Chaplan, S. R., et al., Quantitative Assessment of Tactile Allodynia in the Rat Paw, J. Neurosci. Methods, 1994, 53:55-63; Dixon, W., The Up-and-Down Method for Small Samples, J. Am. Stat. Assoc., 1965, 60:967-78. In brief, beginning with the 2.0-g probe, filaments were applied to the plantar surface of a hind paw for 6-8 s, in an ascending or descending order after a negative or positive withdrawal response, respectively. Six consecutive responses from the first change in the response were used to calculate the withdrawal threshold (in grams). In cases where response thresholds fell outside the range of detection, 15.00 and 0.25 g were, respectively, assigned for continuous negative or positive responses to the limit of stimuli. The percent maximal possible effect (% MPE) was calculated as ([postdrug threshold−baseline threshold]/[cutoff threshold (15 g)−baseline threshold])×100.
# as §1
# Statistical analyses were carried out using BMDP 2007 (Statistical Solutions, Saugus, Mass., USA) and Graph Pad Prism (version 4.03; Graph Pad Software Inc., San Diego, Calif., USA). Data were analyzed using one-way ANOVA, repeated measures ANOVA, or t-test where appropriate. If ANOVA was significant, Tukey-Kramer post hoc analysis was used for multiple group comparison. Area under the curve (AUC) was calculated using the trapezoidal rule. The results are presented as mean±s.e. mean and were considered significant at P<0.05. Analyses of the dose-response curves and statistics were obtained using the pharmacologic software programs of Tallarida and Murray and included calculation of the ED50 values and their 95% confidence intervals (CI). Tallarida, R. J., et al., Manual of Pharmacologic Calculations With Computer Programs, Second ed. New York: Springer-Verlag, 1987.
smiles,measurement,setting,value
"CC1(Cc2ccccc2)COc2cc(C(=O)N3CCCCC3)ccc21 (stereo not drawn) [Example 3, 3-benzyl-3-methyl-2,3-dihydrobenzofuran-6-carboxylic acid-piperidine amide]",Ki,"CB1; CHO-K1 membranes, 1 nM [3H]SR141716A, read-out: Mean Ki (nM) hCB1",> 10000 nM
same,radioactive ligand displacement at hCB1 receptors,CB1; up to 10 μM,did not demonstrate detectable radioactive ligand displacement
same,Ki,CB2,422 ± 123 nM
same,nociceptive effect of a thermal stimulus applied to hind paws,naïve rats; 1 mg/kg or 3 mg/kg i.p.,did not block
same,nociceptive effect of a thermal stimulus applied to hind paws,naïve rats; 10 mg/kg i.p.,short-lasting antinociceptive effect
same,ED50,"[1]; 20 min, read-out: ED50 for suppressing thermal hyperalgesia",13.5 mg/kg
same,ED50,[1]; read-out: ED50 tactile allodynia (% MPE withdrawal threshold AUC),24 mg/kg
same,time of maximal suppression,[1]; i.p.,20 min
same,effect on paclitaxel-evoked thermal hyperalgesia and mechanical allodynia relative to vehicle,"[1]; i.p., dose-dependent",suppressed
